In patent publication US11135320B2, “Radioligands for pretargeted pet imaging and methods of their therapeutic use” (priority 2015, dated 2021):
Where “and” joins values, the source holds several entries; their conditions need not be identical. Equal values may be shown once.

Test system: subcutaneous SW1222 xenografts (A33 antigen-expressing human colorectal carcinoma)
Assay: Pretargeted biodistribution with huA33-TCO and ^64Cu-tetrazine radioligand
Format: in vivo, athymic nude mice
Method: Female athymic nude mice bearing subcutaneous SW1222 (right shoulder) xenografts (100-150 mm^3, 18-21 days post-inoculation) were administered 100 μg (0.66 nmol) huA33-TCO (in 200 μL 0.9% sterile saline) via intravenous tail vein injection. […] The specific activity of the radiotracer was adjusted using cold ^natCu-Tz-SarAr such that the molar ratio of Tzinjected:huA^33injected=1:1. Animals (n=4 per group) were euthanized by CO2(g) asphyxiation at 1, 4, 12, and 24 h after injection. After asphyxiation, 13 tissues were removed, rinsed in water, dried in air for 5 min, weighed, and counted in a gamma counter calibrated for ^64Cu. Counts were converted into activity using a calibration curve generated from known standards. Count data were background- and decay-corrected to the time of injection, and the percent injected dose per gram (% ID/g) for each tissue sample was calculated by normalization to the total activity injected. Contents within the stomach, small intestine, and large intestine were not removed for the measurements.
Contents within the stomach, small intestine, and large intestine were not removed for the measurements. […] Zeglis, B. M. et al. “A pretargeted PET imaging strategy based on bioorthogonal Diels-Alder click chemistry.” Journal of Nuclear Medicine. 54, 1389-1396 (2013). ©2013 by the Society of Nuclear Medicine and Molecular Imaging, Inc.
Zeglis, B. M. et al. “A pretargeted PET imaging strategy based on bioorthogonal Diels-Alder click chemistry.” Journal of Nuclear Medicine. 54, 1389-1396 (2013). ©2013 by the Society of Nuclear Medicine and Molecular Imaging, Inc.
(§1) Female athymic nude mice bearing subcutaneous SW1222 (right shoulder) xenografts (100-150 mm^3, 18-21 days post-inoculation) were administered 100 μg (0.66 nmol) huA33-TCO (in 200 μL 0.9% sterile saline) via intravenous tail vein injection. After an accumulation interval of 48 h, the same mice were then administered ^64Cu-Tz-SarAr (300-350 μCi in 200 μL 0.9% sterile saline) via intravenous tail vein injection (t=0). The specific activity of the radiotracer was adjusted using cold ^natCu-Tz-SarAr such that the molar ratio of Tzinjected:huA^33injected=1:1. Animals (n=4 per group) were euthanized by CO2(g) asphyxiation at 1, 4, 12, and 24 h after injection. After asphyxiation, tissues were removed, rinsed in water, dried in air for 5 min, weighed, and counted in a gamma counter calibrated for ^64Cu. Counts were converted into activity using a calibration curve generated from known standards. Count data were background- and decay-corrected to the time of injection, and the percent injected dose per gram (% ID/g) for each tissue sample was calculated by normalization to the total activity injected. Contents within the stomach, small intestine, and large intestine were not removed for the measurements.
as §1, with “120” for “48”, “Contents within the stomach, small intestine, and large intestine were not removed for the measurements.” left out

[1] = 48 h accumulation interval, 12 h p.i.
[2] = 48 h accumulation interval, 24 h p.i.
[3] = 120 h accumulation interval, 1 h p.i.
[4] = 120 h accumulation interval, 4 h p.i.
[5] = 120 h accumulation interval, 12 h p.i.
[6] = 120 h accumulation interval, 24 h p.i.

NC12CNCCNCC(NCc3ccc(CNC(=O)CCCC(=O)NCc4ccc(-c5nncnn5)cc4)cc3)(CNCCNC1)CNCCNC2.[64Cu+2] [^64Cu-Tz-SarAr]
Blood activity concentration [1]: 1.81 ± 0.54 % ID/g | Bone activity concentration [1]: 0.3 ± 0.07 % ID/g | Heart activity concentration [1]: 0.88 ± 0.33 % ID/g | Kidney activity concentration [1]: 2.04 ± 0.36 % ID/g | Large Intestine activity concentration [1]: 0.22 ± 0.08 % ID/g | Liver activity concentration [1]: 1.08 ± 0.32 % ID/g | Lung activity concentration [1]: 1.00 ± 0.18 % ID/g | Muscle activity concentration [1]: 0.15 ± 0.02 % ID/g | Small Intestine activity concentration [1]: 0.3 ± 0.08 % ID/g | Spleen activity concentration [1]: 0.56 ± 0.11 % ID/g | Stomach activity concentration [1]: 0.12 ± 0.04 % ID/g | Tumor activity concentration [1]: 4.94 ± 1.12 % ID/g | Tumor/Blood activity concentration ratio [1]: 2.72 ± 1.03 | Tumor/Bone activity concentration ratio [1]: 16.24 ± 5.16 | Tumor/Heart activity concentration ratio [1]: 5.62 ± 2.47 | Tumor/Kidney activity concentration ratio [1]: 2.42 ± 0.7 | Tumor/Large Intestine activity concentration ratio [1]: 22.66 ± 10.19 | Tumor/Liver activity concentration ratio [1]: 4.58 ± 1.69 | Tumor/Lung activity concentration ratio [1]: 4.94 ± 1.45 | Tumor/Muscle activity concentration ratio [1]: 33.88 ± 9.31 | Tumor/Small Intestine activity concentration ratio [1]: 16.47 ± 5.62 | Tumor/Spleen activity concentration ratio [1]: 8.75 ± 2.61 | Tumor/Stomach activity concentration ratio [1]: 41.88 ± 18.35 | Blood activity concentration [2]: 0.92 ± 0.31 % ID/g | Bone activity concentration [2]: 0.18 ± 0.05 % ID/g | Heart activity concentration [2]: 0.45 ± 0.08 % ID/g | Kidney activity concentration [2]: 1.47 ± 0.43 % ID/g | Large Intestine activity concentration [2]: 0.16 ± 0.03 % ID/g | Liver activity concentration [2]: 1.28 ± 0.33 % ID/g | Lung activity concentration [2]: 1.05 ± 0.51 % ID/g | Muscle activity concentration [2]: 0.11 ± 0.04 % ID/g | Small Intestine activity concentration [2]: 0.22 ± 0.07 % ID/g | Spleen activity concentration [2]: 0.5 ± 0.1 % ID/g | Stomach activity concentration [2]: 0.15 ± 0.03 % ID/g | Tumor activity concentration [2]: 4.85 ± 0.67 % ID/g | Tumor/Blood activity concentration ratio [2]: 5.27±1.92 | Tumor/Bone activity concentration ratio [2]: 26.55 ± 7.58 | Tumor/Heart activity concentration ratio [2]: 10.9 ± 2.55 | Tumor/Kidney activity concentration ratio [2]: 3.31 ± 1.07 | Tumor/Large Intestine activity concentration ratio [2]: 29.58 ± 6.11 | Tumor/Liver activity concentration ratio [2]: 3.8 ± 1.11 | Tumor/Lung activity concentration ratio [2]: 4.61 ± 2.32 | Tumor/Muscle activity concentration ratio [2]: 44.18 ± 17.61 | Tumor/Small Intestine activity concentration ratio [2]: 21.72 ± 7.59 | Tumor/Spleen activity concentration ratio [2]: 9.8 ± 2.47 | Tumor/Stomach activity concentration ratio [2]: 32.81 ± 8.37 | Blood activity concentration [3]: 1.39 ± 0.19 % ID/g | Bone activity concentration [3]: 0.21 ± 0.03 % ID/g | Heart activity concentration [3]: 0.52 ± 0.06 % ID/g | Kidney activity concentration [3]: 1.80 ± 0.12 % ID/g | Large Intestine activity concentration [3]: 0.29 ± 0.16 % ID/g | Liver activity concentration [3]: 1.65 ± 0.07 % ID/g | Lung activity concentration [3]: 1.41 ± 0.21 % ID/g | Muscle activity concentration [3]: 0.20 ± 0.03 % ID/g | Small Intestine activity concentration [3]: 0.34 ± 0.03 % ID/g | Spleen activity concentration [3]: 0.60 ± 0.13 % ID/g | Stomach activity concentration [3]: 0.32 ± 0.13 % ID/g | Tumor activity concentration [3]: 3.61 ± 0.45 % ID/g | Tumor/Blood activity concentration ratio [3]: 2.61 ± 0.48 | Tumor/Bone activity concentration ratio [3]: 17.27 ± 3.03 | Tumor/Heart activity concentration ratio [3]: 7.00 ± 1.22 | Tumor/Kidney activity concentration ratio [3]: 2.01 ± 0.29 | Tumor/Large Intestine activity concentration ratio [3]: 12.39 ± 7.14 | Tumor/Liver activity concentration ratio [3]: 2.19 ± 0.29 | Tumor/Lung activity concentration ratio [3]: 2.55 ± 0.49 | Tumor/Muscle activity concentration ratio [3]: 18.41 ± 3.47 | Tumor/Small Intestine activity concentration ratio [3]: 10.53 ± 1.58 | Tumor/Spleen activity concentration ratio [3]: 6.02 ± 1.46 | Tumor/Stomach activity concentration ratio [3]: 11.37 ± 4.88 | Blood activity concentration [4]: 1.05±0.29 % ID/g | Bone activity concentration [4]: 0.16 ± 0.04 % ID/g | Heart activity concentration [4]: 0.43 ± 0.11 % ID/g | Kidney activity concentration [4]: 2.10 ± 0.20 % ID/g | Large Intestine activity concentration [4]: 0.20 ± 0.13 % ID/g | Liver activity concentration [4]: 1.16 ± 0.39 % ID/g | Lung activity concentration [4]: 0.91 ± 0.22 % ID/g | Muscle activity concentration [4]: 0.11 ± 0.05 % ID/g | Small Intestine activity concentration [4]: 0.22 ± 0.03 % ID/g | Spleen activity concentration [4]: 0.50 ± 0.05 % ID/g | Stomach activity concentration [4]: 0.25 ± 0.12 % ID/g | Tumor activity concentration [4]: 3.6±0.7 % ID/g and 3.55 ± 0.74 % ID/g | Tumor/Blood activity concentration ratio [4]: 3.37 ± 1.16 | Tumor/Bone activity concentration ratio [4]: 21.53 ± 7.14 | Tumor/Heart activity concentration ratio [4]: 8.24 ± 2.71 | Tumor/Kidney activity concentration ratio [4]: 1.69 ± 0.39 | Tumor/Large Intestine activity concentration ratio [4]: 17.82 ± 12.22 | Tumor/Liver activity concentration ratio [4]: 3.06 ± 1.2 | Tumor/Lung activity concentration ratio [4]: 3.89 ± 1.23 | Tumor/Muscle activity concentration ratio [4]: 32.58 ± 16.17 | Tumor/Small Intestine activity concentration ratio [4]: 16.22 ± 3.91 | Tumor/Spleen activity concentration ratio [4]: 7.03 ± 1.64 | Tumor/Stomach activity concentration ratio [4]: 14.04 ± 7.07 | Blood activity concentration [5]: 0.44 ± 0.14 % ID/g | Bone activity concentration [5]: 0.11 ± 0.04 % ID/g | Heart activity concentration [5]: 0.34 ± 0.20 % ID/g | Kidney activity concentration [5]: 2.11 ± 0.13 % ID/g | Large Intestine activity concentration [5]: 0.09 ± 0.03 % ID/g | Liver activity concentration [5]: 0.96 ± 0.09 % ID/g | Lung activity concentration [5]: 0.59 ± 0.27 % ID/g | Muscle activity concentration [5]: 0.08 ± 0.04 % ID/g | Small Intestine activity concentration [5]: 0.15 ± 0.07 % ID/g | Spleen activity concentration [5]: 0.34 ± 0.14 % ID/g | Stomach activity concentration [5]: 0.09 ± 0.03 % ID/g | Tumor activity concentration [5]: 3.29 ± 0.40 % ID/g | Tumor/Blood activity concentration ratio [5]: 7.46 ± 2.54 | Tumor/Bone activity concentration ratio [5]: 29.07 ± 11.14 | Tumor/Heart activity concentration ratio [5]: 9.56 ± 5.64 | Tumor/Kidney activity concentration ratio [5]: 1.56 ± 0.21 | Tumor/Large Intestine activity concentration ratio [5]: 35.43 ± 12.17 | Tumor/Liver activity concentration ratio [5]: 3.43 ± 0.52 | Tumor/Lung activity concentration ratio [5]: 5.55 ± 2.62 | Tumor/Muscle activity concentration ratio [5]: 38.74 ± 20.11 | Tumor/Small Intestine activity concentration ratio [5]: 21.47 ± 9.60 | Tumor/Spleen activity concentration ratio [5]: 9.63 ± 4.03 | Tumor/Stomach activity concentration ratio [5]: 38.07 ± 12.42 | Blood activity concentration [6]: 0.75 ± 0.23 % ID/g | Bone activity concentration [6]: 0.25 ± 0.08 % ID/g | Heart activity concentration [6]: 0.40 ± 0.16 % ID/g | Kidney activity concentration [6]: 1.90 ± 0.17 % ID/g | Large Intestine activity concentration [6]: 0.16 ± 0.04 % ID/g | Liver activity concentration [6]: 1.06 ± 0.16 % ID/g | Lung activity concentration [6]: 0.85 ± 0.29 % ID/g | Muscle activity concentration [6]: 0.14 ± 0.05 % ID/g | Small Intestine activity concentration [6]: 0.17 ± 0.06 % ID/g | Spleen activity concentration [6]: 0.69 ± 0.17 % ID/g | Stomach activity concentration [6]: 0.15 ± 0.08 % ID/g | Tumor activity concentration [6]: 4.34 ± 0.98 % ID/g | Tumor/Blood activity concentration ratio [6]: 5.74±2.17 | Tumor/Bone activity concentration ratio [6]: 17.16 ± 6.90 | Tumor/Heart activity concentration ratio [6]: 10.76 ± 4.94 | Tumor/Kidney activity concentration ratio [6]: 2.29 ± 0.56 | Tumor/Large Intestine activity concentration ratio [6]: 26.48 ± 8.29 | Tumor/Liver activity concentration ratio [6]: 4.09 ± 1.13 | Tumor/Lung activity concentration ratio [6]: 5.09 ± 2.06 | Tumor/Muscle activity concentration ratio [6]: 30.39 ± 11.94 | Tumor/Small Intestine activity concentration ratio [6]: 25.34 ± 10.4 | Tumor/Spleen activity concentration ratio [6]: 6.26 ± 2.09 | Tumor/Stomach activity concentration ratio [6]: 29.21 ± 17.97
